Assay results published in patent US20090061031A1, “Compositions and methods for treating obesity, obesity related disorders and for inhibiting the infectivity of human immunodeficiency virus” (priority 2006, published 2009).
Values joined by “and” are separate entries in the source; they are usually repeats but may differ in a detail not shown here. Identical values can stand only once. Like-named read-outs stand apart in the source and are kept apart here.

Legend:
in vitro = details: human
Description: Uninfected MT2 and H9 cell lines, and HIV-1IIIB chronically infected H9 (H9/HIV-1IIIB) and HIV-1/IIIB virus, were obtained through the AIDS Research and Reference Reagent Program, NIAID, NIH. […] The cell lines were cultured in RPMI medium 1640 containing 100 U/ml penicillin, 100 μg/ml streptomycin, 2 mM L-glutamine, and 10% heat-inactivated fetal calf serum. Viral stocks were prepared and standardized as described [8].
Cytotoxicity was evaluated by the MTT assay [8].

HIV-1 integrase [1] = molecular target: T1, HIV-1 integrase (Human immunodeficiency virus type 1 group M subtype B, UniProt P12497, C1427S/F1332H); assay: HIV-1 integrase disintegration assay; assay type: biochemical; details: read-out: EC50s of inhibition of disintegration product formation
HIV-1 integrase [2] = molecular target: T1, HIV-1 integrase; assay: HIV-1 integrase 3′-processing assay; assay type: biochemical; details: 21-mer U3 substrate, read-out: Inhibitory Activity EC50 HIV-1 Integrase 3′-Proc
[3] = molecular target: T2, HIV-1 gp41 fusion core 6HB (N36 + C34) (Human immunodeficiency virus type 1 group M subtype B, UniProt P04578); assay: Fusion core 6HB formation by circular dichroism spectroscopy
Description: (§1) Fusion complex formation was carried out by incubating equimolar amounts of HIV-1 gp41 fusion peptides N36 and C34 in PBS (Phosphate Buffer Saline, containing 50 mM sodium phosphate, pH 7.2 and 150 mM NaCl) at 10 or 20 μM each at 37° C. […] Next, an equimolar amount of C34 was added and the samples incubated for 30 min.
CD spectra were recorded on an AVIV 62-DS CD spectrometer, using 1 mm sample cells and a fixed temperature of 4° C. […] Each spectrum is a smoothed average of 10 scans. The bandwidth for each measurement was 1 nm. […] Prior to calculation of the final ellipticity, all spectra were corrected by subtracting the reference spectra of PBS without peptides.

HIV-1 [4] = assay: HIV-1 core protein p24 production; assay type: cell-based, HIV-1IIIB; details: Human immunodeficiency virus 1, 50% inhibition, read-out: Anti-HIV Activity EC50 P24
HIV-1 integrase [5] = molecular target: T1, HIV-1 integrase; assay: HIV-1 integrase strand-transfer (integration) assay; assay type: biochemical; details: U3-GT into pUC18, read-out: Inhibitory Activity EC50 HIV-1 Integrase ST
[6] = molecular target: T2, HIV-1 gp41 fusion core 6HB (N36 + C34); assay: Fusion core 6HB formation by native PAGE; details: Inhibitory Activity EC50 Fusion Core Formation 6HB (N36 + C34) N-PAGE, N36 pre-incubated with compound
Description: as §1
N-PAGE was carried out as previously reported [13] with modifications that involve fusion peptide concentration, order of reactions, and time of incubation in fusion complex formation. Tris-glycine gels (18%, Invitrogen, Carlsbad, Calif.) were electrophoresed at 120 V for 2 h, stained with Coomassie Blue and analyzed by densitometry.

[7] = test system: HIV-1 primary isolates, M and T tropic strains from different clades; assay: Activity against a panel of HIV-1 primary isolates; assay type: cell-based
HIV-1 [8] = assay type: cell-based, HIV-1IIIB
apoE ko mice = assay: Diet-induced atherosclerosis in Western diet-fed apoE ko mouse; assay type: in vivo; details: 0.25 mg/ml in drinking water (daily dose 1.25 mg), 4 months
Description: To test whether oleuropein reduces diet-induced atherosclerosis, oleuropein was administered to apoE ko mice at various doses from 0.25 mg/ml, 2.5 mg/ml, and 25 mg/ml in the drinking water followed by feeding them with a Western diet containing 42% of calories from fat (Harlan-Teklad). […] The mice were sacrificed, blood and tissues collected. Aortas were dissected from the aortic valve to the iliac bifurcation, opened longitudinally, and pinned to a black wax surface. Atherosclerotic lesions were stained with Oil Red O. The total area of the aorta and the atherosclerotic lesion areas were determined by planimetry using Image Pro software.

[9] = parameters: species or system C57BL/6 wild-type mice; details: mouse, in vivo, po
Description: To verify that we can administer oleuropein chronically to mice, we added purified oleuropein to drinking water at concentrations of 5 μg/ml, 50 μg/ml, 500 μg/ml, and 5 mg/ml. The water intake of mice averages 5 ml per mouse per day, these dosages of oleuropein result in daily doses of 0.025 mg, 0.25 mg, 2.5 mg, and 25 mg per mouse per day (equivalent to 1, 10, 100, and 1000 mg/kg body weight). 5 male and 5 female C57BL/6 wild-type mice were used for each dose of oleuropein, and housed them in metabolic cages that allow precise determination of water intake and quantitative urine collection.
After seven days to 4 months of chronic steady-state administration, mice blood and urine were collected. 100 μl of serum or urine were extracted with 1 ml ethyl acetate, evaporated to dryness, and reconstituted with 25 μl water and 5 μl was injected for LC-MS analysis.
LC-MS quantitation was performed using an HP1100 equipped with diode array detector and ESI-mass spectrometer. LC was done using a C18 column (4×20 mm), with a 4 minute elution using a gradient of 5-95% CH3CN—H2O containing 1% acetic acid. The diode array recordings were made at 280 nm and 230 nm, and the ESI mass spectrum was made in negative detection mode. Purified oleuropein, and hydroxytyrosol (synthesized by us) were used as standards. The injection volumes were 5 μl. […]

[10] = Human immunodeficiency virus 1, syncytial formation, 50% inhibition, read-out: Anti-HIV Activity EC50 Syncytium

T2 sequence (P04578 546-581): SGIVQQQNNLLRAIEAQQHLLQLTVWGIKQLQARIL

OCCc1ccc(O)c(O)c1 [HT, hydroxytyrosol]
IC50 (in vitro): > 10000 nM | EC50 (HIV-1 integrase [1]): 18 nM | EC50 (HIV-1 integrase [2]): 54 nM | EC50 [3]: 60 nM | EC50 (HIV-1 [4]): 68 nM | EC50 (HIV-1 integrase [5]): 43 nM | EC50 [6]: ~58 nM and 58 nM | activity against HIV-1 primary isolates [7]: active | EC50 (HIV-1 [8]; [10]): 61 nM

C/C=C1/[C@H](O[C@@H]2O[C@H](CO)[C@@H](O)[C@H](O)[C@H]2O)OC=C(C(=O)OC)[C@H]1CC(=O)OCCc1ccc(O)c(O)c1 (single isomer, unassigned) [Ole, oleuropein]
IC50 (in vitro): > 10000 nM | serum levels of oleuropein (apoE ko mice): comparable to those in animals fed a diet supplemented with olive oil | EC50 (HIV-1 integrase [1]): 28 nM | EC50 (HIV-1 integrase [2]): 46 nM | EC50 [3]: 62 nM | EC50 (HIV-1 [4]): 73 nM | tolerability in animals [9]: well tolerated | EC50 (HIV-1 integrase [5]): 56 nM | EC50 [6]: ~66 nM and 66 nM | activity against HIV-1 primary isolates [7]: active | EC50 (HIV-1 [8]; Human immunodeficiency virus 1, read-out: average EC50 for syncytial formation): 55 nM | EC50 (HIV-1 [8]; [10]): 55 ± 5 nM
